Results published in patent publication US12723063B2, “GIPR-agonist compounds” (Eli Lilly and Company, priority 2019, dated 2026).
*1 amine or outer side, *2 acyl side, *3 side chain or, on linkers, in order; H or OH if unused. Where a SMILES comes first, the peptide text is derived from it. Side-chain parts run from the residue outwards. [ ]: non-standard residue; d: D form. The star is where a group is joined. C20 diacid = O=C(O)CCCCCCCCCCCCCCCCCCC(=O)*; C18 diacid = O=C(O)CCCCCCCCCCCCCCCCC(=O)*; αMePhe(2-F) = C[C@](N)(Cc1ccccc1F)C(=O)O; γGlu = O=C(O)[C@H](CCC(=O)[*:2])N[*:1]; αMeF = C[C@](N)(Cc1ccccc1)C(=O)O; 4Pal = N[C@@H](Cc1ccncc1)C(=O)O; αMeL = CC(C)C[C@](C)(N)C(=O)O; AEEA = NCCOCCOCC(=O)O; Aib = CC(C)(N)C(=O)O

Biological target: T1, human GcgR (Homo sapiens, UniProt P47871)
T1 construct: expressed in transfected cells; crude membranes
T1 sequence (P47871 26-477): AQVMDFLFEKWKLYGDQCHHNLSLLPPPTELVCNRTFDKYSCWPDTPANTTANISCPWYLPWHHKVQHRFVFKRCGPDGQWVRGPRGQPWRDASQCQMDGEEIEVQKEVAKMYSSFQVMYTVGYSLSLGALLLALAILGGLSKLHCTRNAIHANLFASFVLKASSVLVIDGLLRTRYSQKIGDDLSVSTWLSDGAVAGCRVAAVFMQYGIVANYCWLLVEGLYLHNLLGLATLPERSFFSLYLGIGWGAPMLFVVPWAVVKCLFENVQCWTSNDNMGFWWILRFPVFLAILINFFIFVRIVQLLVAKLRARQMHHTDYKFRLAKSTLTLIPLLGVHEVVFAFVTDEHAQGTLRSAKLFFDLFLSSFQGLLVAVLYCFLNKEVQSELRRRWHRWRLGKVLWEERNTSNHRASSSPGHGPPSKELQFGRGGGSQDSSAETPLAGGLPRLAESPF
Assay: [125I]-Glucagon binding, SPA with WGA beads, 0.1% bacitracin
Conditions: geometric mean, read-out: hGcgR Ki
Procedure, shortened: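 SPA competition binding with WGA beads on crude membranes from HEK293 cells stably expressing hGcgR. Buffer: 25 mM HEPES pH 7.4, 2.5 mM CaCl2, 1 mM MgCl2, 0.1% bacitracin, 0.003% Tween-20; 10-point 3-fold dilutions, NSB with 1 μM Gcg.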

| SMILES | Ki |
| --- | --- |
| CC[C@H](C)[C@H](NC(=O)[C@H](CO)NC(=O)[C@H](Cc1ccc(O)cc1)NC(=O)[C@H](CC(=O)O)NC(=O)[C@H](CO)NC(=O)[C@@H](NC(=O)[C@](C)(Cc1ccccc1)NC(=O)[C@@H](NC(=O)CNC(=O)[C@H](CCC(=O)O)NC(=O)C(C)(C)NC(=O)[C@@H](N)Cc1ccc(O)cc1)[C@@H](C)O)[C@@H](C)CC)C(=O)N[C@@H](C)C(=O)N[C@@H](CC(C)C)C(=O)N[C@@H](CC(=O)O)C(=O)N[C@@H](CCCCN)C(=O)N[C@@H](CCCCNC(=O)COCCOCCNC(=O)COCCOCCNC(=O)CC[C@H](NC(=O)CCCCCCCCCCCCCCCCCCC(=O)O)C(=O)O)C(=O)N[C@@H](Cc1c[nH]cn1)C(=O)N[C@@H](CCC(N)=O)C(=O)NC(C)(C)C(=O)N[C@@H](CC(=O)O)C(=O)N[C@@H](Cc1ccccc1)C(=O)N[C@H](C(=O)N[C@@H](CCC(=O)O)C(=O)N[C@@H](Cc1ccncc1)C(=O)N[C@@H](CC(C)C)C(=O)N[C@@H](CC(C)C)C(=O)N[C@@H](CCC(=O)O)C(=O)NCC(=O)NCC(=O)N1CCC[C@H]1C(=O)N[C@@H](CO)C(=O)N[C@@H](CO)C(=O)NCC(=O)N[C@@H](C)C(=O)N1CCC[C@H]1C(=O)N1CCC[C@H]1C(=O)N1CCC[C@H]1C(=O)N[C@@H](CO)C(N)=O)C(C)C [Example 44] (H-Y[Aib]EGT[αMeF]ISDYSIALDKK([AEEA-AEEA-γGlu-C20 diacid])HQ[Aib]DFVE[4Pal]LLEGGPSSGAPPPS-NH2) | 50 nM |
| CC[C@H](C)[C@H](NC(=O)[C@H](Cc1ccccc1)NC(=O)[C@@H](NC(=O)CNC(=O)[C@H](CCC(=O)O)NC(=O)C(C)(C)NC(=O)[C@@H](N)Cc1ccc(O)cc1)[C@@H](C)O)C(=O)N[C@@H](CO)C(=O)N[C@@H](CC(=O)O)C(=O)N[C@@H](Cc1ccc(O)cc1)C(=O)N[C@@H](CO)C(=O)N[C@H](C(=O)N[C@@](C)(CC(C)C)C(=O)N[C@@H](CC(C)C)C(=O)N[C@@H](CC(=O)O)C(=O)N[C@@H](CCCCN)C(=O)N[C@@H](CCCCNC(=O)COCCOCCNC(=O)COCCOCCNC(=O)CC[C@H](NC(=O)CCCCCCCCCCCCCCCCCCC(=O)O)C(=O)O)C(=O)N[C@@H](Cc1c[nH]cn1)C(=O)N[C@@H](CCC(N)=O)C(=O)NC(C)(C)C(=O)N[C@@H](CC(=O)O)C(=O)N[C@@H](Cc1ccccc1)C(=O)N[C@H](C(=O)N[C@@H](CCC(=O)O)C(=O)N[C@@H](Cc1ccncc1)C(=O)N[C@@H](CC(C)C)C(=O)N[C@@H](CC(C)C)C(=O)N[C@@H](CCC(=O)O)C(=O)N[C@H](C(=O)NCC(=O)N1CCC[C@H]1C(=O)N[C@@H](CO)C(=O)N[C@@H](CO)C(=O)NCC(=O)N[C@@H](C)C(=O)N1CCC[C@H]1C(=O)N1CCC[C@H]1C(=O)N1CCC[C@H]1C(=O)N[C@@H](CO)C(N)=O)[C@@H](C)O)C(C)C)[C@@H](C)CC [Example 45] (H-Y[Aib]EGTFISDYSI[αMeL]LDKK([AEEA-AEEA-γGlu-C20 diacid])HQ[Aib]DFVE[4Pal]LLETGPSSGAPPPS-NH2) | 660 nM |
| CC[C@H](C)[C@H](NC(=O)[C@H](CO)NC(=O)[C@H](Cc1ccc(O)cc1)NC(=O)[C@H](CC(=O)O)NC(=O)[C@H](CO)NC(=O)[C@@H](NC(=O)[C@](C)(Cc1ccccc1F)NC(=O)[C@@H](NC(=O)CNC(=O)[C@H](CCC(=O)O)NC(=O)C(C)(C)NC(=O)[C@@H](N)Cc1ccc(O)cc1)[C@@H](C)O)[C@@H](C)CC)C(=O)N[C@@H](C)C(=O)N[C@@H](CC(C)C)C(=O)N[C@@H](CC(=O)O)C(=O)N[C@@H](CCCCN)C(=O)N[C@@H](CCCCNC(=O)COCCOCCNC(=O)COCCOCCNC(=O)CC[C@H](NC(=O)CCCCCCCCCCCCCCCCCCC(=O)O)C(=O)O)C(=O)N[C@@H](Cc1c[nH]cn1)C(=O)N[C@@H](CCC(N)=O)C(=O)NC(C)(C)C(=O)N[C@@H](CC(=O)O)C(=O)N[C@@H](Cc1ccccc1)C(=O)N[C@H](C(=O)N[C@@H](CCC(=O)O)C(=O)N[C@@H](Cc1ccncc1)C(=O)N[C@@H](CC(C)C)C(=O)N[C@@H](CC(C)C)C(=O)N[C@@H](CCC(=O)O)C(=O)N[C@H](C(=O)NCC(=O)N1CCC[C@H]1C(=O)N[C@@H](CO)C(=O)N[C@@H](CO)C(=O)NCC(=O)N[C@@H](C)C(=O)N1CCC[C@H]1C(=O)N1CCC[C@H]1C(=O)N1CCC[C@H]1C(=O)N[C@@H](CO)C(N)=O)[C@@H](C)O)C(C)C [Example 38] (H-Y[Aib]EGT[αMePhe(2-F)]ISDYSIALDKK([AEEA-AEEA-γGlu-C20 diacid])HQ[Aib]DFVE[4Pal]LLETGPSSGAPPPS-NH2) | 182 nM |
| CC[C@H](C)[C@H](NC(=O)[C@H](Cc1ccccc1)NC(=O)[C@@H](NC(=O)CNC(=O)[C@H](CCC(=O)O)NC(=O)C(C)(C)NC(=O)[C@@H](N)Cc1ccc(O)cc1)[C@@H](C)O)C(=O)N[C@@H](CO)C(=O)N[C@@H](CC(=O)O)C(=O)N[C@@H](Cc1ccc(O)cc1)C(=O)N[C@@H](CO)C(=O)N[C@H](C(=O)N[C@@](C)(CC(C)C)C(=O)N[C@@H](CC(C)C)C(=O)N[C@@H](CC(=O)O)C(=O)N[C@@H](CCCCN)C(=O)N[C@@H](CCCCNC(=O)COCCOCCNC(=O)COCCOCCNC(=O)CC[C@H](NC(=O)CCCCCCCCCCCCCCCCCCC(=O)O)C(=O)O)C(=O)N[C@@H](Cc1c[nH]cn1)C(=O)N[C@@H](CCC(N)=O)C(=O)NC(C)(C)C(=O)N[C@@H](CCC(=O)O)C(=O)N[C@@H](Cc1ccccc1)C(=O)N[C@H](C(=O)N[C@@H](CCC(=O)O)C(=O)N[C@@H](Cc1ccc(O)cc1)C(=O)N[C@@H](CC(C)C)C(=O)N[C@@H](CC(C)C)C(=O)N[C@@H](CCC(=O)O)C(=O)N[C@@H](CCC(N)=O)C(=O)NCC(=O)N1CCC[C@H]1C(=O)N[C@@H](CO)C(=O)N[C@@H](CO)C(=O)NCC(=O)N[C@@H](C)C(=O)N1CCC[C@H]1C(=O)N1CCC[C@H]1C(=O)N1CCC[C@H]1C(=O)N[C@@H](CO)C(N)=O)C(C)C)[C@@H](C)CC [Example 63] (H-Y[Aib]EGTFISDYSI[αMeL]LDKK([AEEA-AEEA-γGlu-C20 diacid])HQ[Aib]EFVEYLLEQGPSSGAPPPS-NH2) | 185 nM |
| CC[C@H](C)[C@H](NC(=O)[C@H](CO)NC(=O)[C@H](Cc1ccc(O)cc1)NC(=O)[C@H](CC(=O)O)NC(=O)[C@H](CO)NC(=O)[C@@H](NC(=O)[C@](C)(Cc1ccccc1)NC(=O)[C@@H](NC(=O)CNC(=O)[C@H](CCC(=O)O)NC(=O)C(C)(C)NC(=O)[C@@H](N)Cc1ccc(O)cc1)[C@@H](C)O)[C@@H](C)CC)C(=O)N[C@@H](C)C(=O)N[C@@H](CC(C)C)C(=O)N[C@@H](CC(=O)O)C(=O)N[C@@H](CCCCN)C(=O)N[C@@H](CCCCNC(=O)COCCOCCNC(=O)COCCOCCNC(=O)CC[C@H](NC(=O)CCCCCCCCCCCCCCCCCCC(=O)O)C(=O)O)C(=O)N[C@@H](Cc1c[nH]cn1)C(=O)N[C@@H](CCC(N)=O)C(=O)NC(C)(C)C(=O)N[C@@H](CC(=O)O)C(=O)N[C@@H](Cc1ccccc1)C(=O)N[C@H](C(=O)N[C@@H](CCC(=O)O)C(=O)N[C@@H](Cc1ccncc1)C(=O)N[C@@H](CC(C)C)C(=O)N[C@@H](CC(C)C)C(=O)N[C@@H](CCC(=O)O)C(=O)N[C@@H](C)C(=O)NCC(=O)N1CCC[C@H]1C(=O)N[C@@H](CO)C(=O)N[C@@H](CO)C(=O)NCC(=O)N[C@@H](C)C(=O)N1CCC[C@H]1C(=O)N1CCC[C@H]1C(=O)N1CCC[C@H]1C(=O)N[C@@H](CO)C(N)=O)C(C)C [Example 43] (H-Y[Aib]EGT[αMeF]ISDYSIALDKK([AEEA-AEEA-γGlu-C20 diacid])HQ[Aib]DFVE[4Pal]LLEAGPSSGAPPPS-NH2) | 285 nM |
| CC[C@H](C)[C@H](NC(=O)[C@H](CO)NC(=O)[C@H](Cc1ccc(O)cc1)NC(=O)[C@H](CC(=O)O)NC(=O)[C@H](CO)NC(=O)[C@@H](NC(=O)[C@](C)(Cc1ccccc1)NC(=O)[C@@H](NC(=O)CNC(=O)[C@H](CCC(=O)O)NC(=O)C(C)(C)NC(=O)[C@@H](N)Cc1ccc(O)cc1)[C@@H](C)O)[C@@H](C)CC)C(=O)N[C@@H](C)C(=O)N[C@@H](CC(C)C)C(=O)N[C@@H](CC(=O)O)C(=O)N[C@@H](CCCCN)C(=O)N[C@@H](CCCCNC(=O)COCCOCCNC(=O)COCCOCCNC(=O)CC[C@H](NC(=O)CCCCCCCCCCCCCCCCCCC(=O)O)C(=O)O)C(=O)N[C@@H](Cc1c[nH]cn1)C(=O)N[C@@H](CCC(N)=O)C(=O)NC(C)(C)C(=O)N[C@@H](CC(=O)O)C(=O)N[C@@H](Cc1ccccc1)C(=O)N[C@H](C(=O)N[C@@H](CCC(=O)O)C(=O)N[C@@H](Cc1ccncc1)C(=O)N[C@@H](CC(C)C)C(=O)N[C@@H](CC(C)C)C(=O)N[C@@H](CCC(=O)O)C(=O)N[C@H](C(=O)NCC(=O)N1CCC[C@H]1C(=O)N[C@@H](CO)C(=O)N[C@@H](CO)C(=O)NCC(=O)N[C@@H](C)C(=O)N1CCC[C@H]1C(=O)N1CCC[C@H]1C(=O)N1CCC[C@H]1C(=O)N[C@@H](CO)C(N)=O)[C@@H](C)O)C(C)C [Example 41] (H-Y[Aib]EGT[αMeF]ISDYSIALDKK([AEEA-AEEA-γGlu-C20 diacid])HQ[Aib]DFVE[4Pal]LLETGPSSGAPPPS-NH2) | 758 nM |
| CC[C@H](C)[C@H](NC(=O)[C@H](CO)NC(=O)[C@H](Cc1ccc(O)cc1)NC(=O)[C@H](CC(=O)O)NC(=O)[C@H](CO)NC(=O)[C@@H](NC(=O)[C@H](CC(C)C)NC(=O)[C@@H](NC(=O)CNC(=O)[C@H](CCC(=O)O)NC(=O)[C@@H](C)NC(=O)[C@@H](N)Cc1ccc(O)cc1)[C@@H](C)O)[C@@H](C)CC)C(=O)N[C@@H](CC(C)C)C(=O)N[C@@H](CC(C)C)C(=O)N[C@@H](CC(=O)O)C(=O)N[C@@H](CCCCN)C(=O)N[C@@H](CCCCNC(=O)COCCOCCNC(=O)COCCOCCNC(=O)CC[C@H](NC(=O)CCCCCCCCCCCCCCCCC(=O)O)C(=O)O)C(=O)N[C@@H](C)C(=O)N[C@@H](CCC(N)=O)C(=O)NC(C)(C)C(=O)N[C@@H](CC(=O)O)C(=O)N[C@@H](Cc1ccccc1)C(=O)N[C@H](C(=O)N[C@@H](CC(N)=O)C(=O)N[C@@H](Cc1c[nH]c2ccccc12)C(=O)N[C@@H](CC(C)C)C(=O)N[C@@H](CC(C)C)C(=O)N[C@@H](C)C(=O)N[C@@H](CCC(N)=O)C(=O)NCC(=O)N1CCC[C@H]1C(=O)N[C@@H](CO)C(=O)N[C@@H](CO)C(=O)NCC(=O)N[C@@H](C)C(=O)N1CCC[C@H]1C(=O)N1CCC[C@H]1C(=O)N1CCC[C@H]1C(=O)N[C@@H](CO)C(N)=O)C(C)C [Example 32] (H-Y[dA]EGTLISDYSILLDKK([AEEA-AEEA-γGlu-C18 diacid])AQ[Aib]DFVNWLLAQGPSSGAPPPS-NH2) | > 959 nM |
